Data from US6156700A, “3-(1,2-Benzisothiazol- and isoxazol-5-yl)-2,4(1H,3H)-pyrimidinedione or thione and 3-(1,2-benzisothiazol- and isoxazol-5-yl)-4(3H)-pyrimidinone or thione herbicidal agents” (American Cyanmid Company, priority 1998, dated 2000).

Assays:
[1] = test system: SAGPY Arrowhead (Pygmaea); test: Postemergence weed control, flooded paddy (Table IV); assay type: in vivo, Sagittaria pygmaea; parameters: scale not given here
Summary of the method: (§1)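 Herbicidal effect is scored visually on a rating scale three to four weeks after compounds, in aqueous/acetone 50/50 v/v, are added to flood water at roughly 0.0313 to 0.500 kg/ha. Plants: weeds 3 to 5 cm tall, rice at 1.5 to 2.5 leaves.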

[2] = test system: ORYSAT Rice, Tebonnet; test: Rice tolerance, flooded paddy (Table IV); assay type: in vivo, Oryza sativa; parameters: scale not given here; conditions: crop tolerance
Summary of the method: as §1

[3] = test system: MOOVA Monochoria; test: Preemergence weed control, flooded paddy (Table III); assay type: in vivo, Monochoria vaginalis; parameters: scale not given here
Method: (§2) Preemergence herbicidal activity under flooded paddy conditions is determined as follows: plant seeds or propagating organs are planted in the top 0.5 cm of silt loam soil in 32 oz. plastic containers with a diameter of 10.5 cm and no drainage holes. Water is added to these containers and maintained at 1.5 to 3 cm above the soil surface for the duration of the experiment. The test compounds are applied as aqueous/acetone mixtures 50/50 v/v pipetted directly into the flood water to give the equivalent of about 0.0313 to 0.500 kg/ha of active ingredient. The treated containers are placed on greenhouse benches and cared for in accordance with conventional greenhouse procedures. Three to four weeks after treatment, the test is terminated and each container is examined and herbicidal effect rated according to the rating system provided in Example 185. The compounds evaluated are reported by compound number given in Example 185.

[4] = test system: CYPSE Flatsedge; test: as above; assay type: in vivo, Cyperus serotinus; parameters: scale not given here
Method: as §2

[5] = test system: MOOVA Monochoria; test: Postemergence weed control, flooded paddy (Table IV); assay type: in vivo, Monochoria vaginalis; parameters: scale not given here
Summary of the method: as §1

[6] = test system: Barnyardgrass, Echinochloa crus-galli; test: Preemergence herbicidal evaluation, ECHCG; assay type: in vivo, (L.) Beau; conditions: 0.2500 kg/ha
Summary of the method: (§3)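 Seeds sown in potting soil in cups, then sprayed preemergence with compound in aqueous acetone at about 0.0156 to 0.500 kg per hectare. Greenhouse-grown; rated visually 4–5 weeks after treatment on a 0–9 scale (stand, vigor, malformation, size, chlorosis, appearance) versus untreated control.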

[7] = test system: Morningglory Spp., Ipomoea Spp.; test: Postemergence herbicidal evaluation, IPOSS; assay type: in vivo; conditions: 0.2500 kg/ha
Method: In the tests, seedling plants are grown in jiffy flats for about two weeks. The test compounds are dispersed in 50/50 acetone/water mixtures containing 0.5% TWEEN®20, a polyoxyethylene sorbitan monolaurate surfactant of Atlas Chemical Industries, in sufficient quantities to provide the equivalent of about 0.0157 kg to 0.500 kg per hectare of active compound when applied to the plants through a spray nozzle operating at 40 psi for a predetermined time. After spraying, the plants are placed on greenhouse benches and are cared for in accordance with conventional greenhouse procedures. From four to five weeks after treatment, the seedling plants are examined and rated according to the rating system set forth below. Where more than one test is involved for a given compound, the data are averaged.
Results of herbicide evaluation are expressed on a rating scale (0-9). The scale is based upon a visual observation of plant stand, vigor, malformation, size, chlorosis and overall plant appearance as compared with a control.

[8] = test system: Ragweed, Common, Ambrosia artemisifolia; test: Postemergence herbicidal evaluation, AMBEL; assay type: in vivo, L.
Summary of the method: (§4)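 Visual 0–9 scoring against untreated control, made four to five weeks post-spray and averaged over repeat tests, covers stand, vigor, malformation, size and chlorosis. Treatment: foliar spray at 40 psi onto ~2-week seedlings, about 0.0157–0.500 kg/ha, compound in 1:1 acetone/water with 0.5% TWEEN 20.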

[9] = test system: Corn, Field, Zea mays; test: Postemergence herbicidal evaluation, ZEAMX; assay type: in vivo, L.
Summary of the method: as §4

[10] = test system: Foxtail, Green, Setaria viridis; test: Preemergence herbicidal evaluation, SETVI; assay type: in vivo, (L.) Beau; conditions: 0.2500 kg/ha
Summary of the method: as §3

[11] = test system: CYPIR Rice Flatsedge; test: Preemergence weed control, flooded paddy (Table III); assay type: in vivo, Cyperus iria; parameters: scale not given here
Method: as §2

[12] = test system: Barnyardgrass, Echinochloa crus-galli; test: Postemergence herbicidal evaluation, ECHCG; assay type: in vivo, (L.) Beau
Summary of the method: as §4

[13] = test system: Corn, Field, Zea mays; test: Preemergence herbicidal evaluation, ZEAMX; assay type: in vivo, L.; conditions: 0.2500 kg/ha
Summary of the method: as §3

[14] = test system: Velvetleaf, Abutilon theophrasti; test: Postemergence herbicidal evaluation, ABUTH; assay type: in vivo, Medic.
Summary of the method: as §4

[15] = test system: Velvetleaf, Abutilon theophrasti; test: Preemergence herbicidal evaluation, ABUTH; assay type: in vivo, Medic.; conditions: 0.2500 kg/ha
Summary of the method: as §3

[16] = test system: Galium, Galium aparine; test: Postemergence herbicidal evaluation, GALAP; assay type: in vivo
Summary of the method: as §4

CCc1ccc(-c2nsc3ccc(-n4c(=O)cc(C(F)(F)F)n(C)c4=O)cc23)cc1 [Compound 5, 3-[3-(p-Ethylphenyl)-1,2-benzisothiazol-5-yl]-1-methyl-6-(trifluoromethyl)-2,4 (1H,3H)-pyrimidinedione]
herbicidal effect rating ([1]; 0.1250 kg/ha): 4.0
herbicidal effect rating ([1]; 0.2500 kg/ha): 6.0
herbicidal effect rating ([1]; 0.5000 kg/ha): 8.0
herbicidal effect rating ([2]; 0.1250 kg/ha): 4.0
herbicidal effect rating ([2]; 0.2500 kg/ha): 6.0
herbicidal effect rating ([2]; 0.5000 kg/ha): 8.0
herbicidal effect rating ([3]; 0.0313 kg/ha): 9.0
herbicidal effect rating ([3]; 0.0625 kg/ha): 9.0
herbicidal effect rating ([3]; 0.1250 kg/ha): 9.0
herbicidal effect rating ([3]; 0.2500 kg/ha): 9.0
herbicidal effect rating ([3]; 0.5000 kg/ha): 9.0
herbicidal effect rating ([4]; 0.0313 kg/ha): 0.0
herbicidal effect rating ([4]; 0.0625 kg/ha): 2.0
herbicidal effect rating ([4]; 0.1250 kg/ha): 6.0
herbicidal effect rating ([4]; 0.2500 kg/ha): 8.0
herbicidal effect rating ([4]; 0.5000 kg/ha): 7.0
herbicidal effect rating ([5]; 0.1250 kg/ha): 9.0
herbicidal effect rating ([5]; 0.2500 kg/ha): 9.0
herbicidal effect rating ([5]; 0.5000 kg/ha): 9.0
herbicide rating (0-9) [6]: 9.0
herbicide rating (0-9) [7]: 9.0
herbicide rating (0-9) ([8]; 0.2500 kg/ha): 9.0
herbicide rating (0-9) ([9]; 0.2500 kg/ha): 3.0
herbicide rating (0-9) [10]: 9.0
herbicidal effect rating ([11]; 0.0313 kg/ha): 9.0
herbicidal effect rating ([11]; 0.0625 kg/ha): 9.0
herbicidal effect rating ([11]; 0.1250 kg/ha): 9.0
herbicidal effect rating ([11]; 0.2500 kg/ha): 9.0
herbicidal effect rating ([11]; 0.5000 kg/ha): 9.0
herbicide rating (0-9) ([12]; 0.2500 kg/ha): 7.0
herbicide rating (0-9) [13]: 3.0
herbicide rating (0-9) ([14]; 0.2500 kg/ha): 9.0
herbicide rating (0-9) [15]: 9.0
herbicide rating (0-9) ([16]; 0.2500 kg/ha): 9.0

COC(=O)C(C)Oc1cc(C)ccc1-c1nsc2ccc(-n3c(=O)cc(C(F)(F)F)n(C)c3=O)cc12 (centres unmarked) [Compound 9, Methyl 2-{{6-{5-[3,6-dihydro-3-methyl-4-(trifluoromethyl)-2,6-dioxo-1(2H)-pyrimidinyl]-1,2-benzisothiazol-3-yl}-m-tolyl}oxy}propionate]
herbicidal effect rating ([1]; 0.1250 kg/ha): 2.0
herbicidal effect rating ([1]; 0.2500 kg/ha): 9.0
herbicidal effect rating ([1]; 0.5000 kg/ha): 9.0
herbicidal effect rating ([2]; 0.1250 kg/ha): 7.0
herbicidal effect rating ([2]; 0.2500 kg/ha): 9.0
herbicidal effect rating ([2]; 0.5000 kg/ha): 9.0
herbicidal effect rating ([3]; 0.0313 kg/ha): 9.0
herbicidal effect rating ([3]; 0.0625 kg/ha): 9.0
herbicidal effect rating ([3]; 0.1250 kg/ha): 9.0
herbicidal effect rating ([3]; 0.2500 kg/ha): 9.0
herbicidal effect rating ([3]; 0.5000 kg/ha): 9.0
herbicidal effect rating ([4]; 0.0313 kg/ha): 2.0
herbicidal effect rating ([4]; 0.0625 kg/ha): 4.0
herbicidal effect rating ([4]; 0.1250 kg/ha): 9.0
herbicidal effect rating ([4]; 0.2500 kg/ha): 9.0
herbicidal effect rating ([4]; 0.5000 kg/ha): 9.0
herbicidal effect rating ([5]; 0.1250 kg/ha): 9.0
herbicidal effect rating ([5]; 0.2500 kg/ha): 9.0
herbicidal effect rating ([5]; 0.5000 kg/ha): 9.0
herbicide rating (0-9) [6]: 9.0
herbicide rating (0-9) [7]: 9.0
herbicide rating (0-9) ([8]; 0.2500 kg/ha): 9.0
herbicide rating (0-9) ([9]; 0.2500 kg/ha): 9.0
herbicide rating (0-9) [10]: 9.0
herbicidal effect rating ([11]; 0.0313 kg/ha): 9.0
herbicidal effect rating ([11]; 0.0625 kg/ha): 9.0
herbicidal effect rating ([11]; 0.1250 kg/ha): 9.0
herbicidal effect rating ([11]; 0.2500 kg/ha): 9.0
herbicidal effect rating ([11]; 0.5000 kg/ha): 9.0
herbicide rating (0-9) ([12]; 0.2500 kg/ha): 9.0
herbicide rating (0-9) [13]: 9.0
herbicide rating (0-9) ([14]; 0.2500 kg/ha): 9.0
herbicide rating (0-9) [15]: 9.0
herbicide rating (0-9) ([16]; 0.2500 kg/ha): 8.0

COc1cc(C)ccc1-c1nsc2ccc(-n3c(=O)cc(C(F)(F)F)n(C)c3=O)cc12 [Compound 7, 3-[3-(2-Methoxy-p-tolyl)-1,2-benzisothiazol-5-yl]-1-methyl-6-(trifluoromethyl)-2,4(1H,3H)-pyrimidinedione]
herbicidal effect rating ([1]; 0.1250 kg/ha): 4.0
herbicidal effect rating ([1]; 0.2500 kg/ha): 9.0
herbicidal effect rating ([1]; 0.5000 kg/ha): 9.0
herbicidal effect rating ([2]; 0.1250 kg/ha): 7.0
herbicidal effect rating ([2]; 0.2500 kg/ha): 7.0
herbicidal effect rating ([2]; 0.5000 kg/ha): 8.0
herbicidal effect rating ([3]; 0.0313 kg/ha): 9.0
herbicidal effect rating ([3]; 0.0625 kg/ha): 9.0
herbicidal effect rating ([3]; 0.1250 kg/ha): 9.0
herbicidal effect rating ([3]; 0.2500 kg/ha): 9.0
herbicidal effect rating ([3]; 0.5000 kg/ha): 9.0
herbicidal effect rating ([4]; 0.0313 kg/ha): 7.0
herbicidal effect rating ([4]; 0.0625 kg/ha): 7.0
herbicidal effect rating ([4]; 0.1250 kg/ha): 8.0
herbicidal effect rating ([4]; 0.2500 kg/ha): 7.0
herbicidal effect rating ([4]; 0.5000 kg/ha): 9.0
herbicidal effect rating ([5]; 0.1250 kg/ha): 9.0
herbicidal effect rating ([5]; 0.2500 kg/ha): 9.0
herbicidal effect rating ([5]; 0.5000 kg/ha): 9.0
herbicide rating (0-9) [6]: 9.0
herbicide rating (0-9) [7]: 9.0
herbicide rating (0-9) ([8]; 0.2500 kg/ha): 9.0
herbicide rating (0-9) ([9]; 0.2500 kg/ha): 7.0
herbicide rating (0-9) [10]: 9.0
herbicidal effect rating ([11]; 0.0313 kg/ha): 9.0
herbicidal effect rating ([11]; 0.0625 kg/ha): 9.0
herbicidal effect rating ([11]; 0.1250 kg/ha): 9.0
herbicidal effect rating ([11]; 0.2500 kg/ha): 9.0
herbicidal effect rating ([11]; 0.5000 kg/ha): 9.0
herbicide rating (0-9) ([12]; 0.2500 kg/ha): 8.0
herbicide rating (0-9) [13]: 7.0
herbicide rating (0-9) ([14]; 0.2500 kg/ha): 9.0
herbicide rating (0-9) [15]: 9.0
herbicide rating (0-9) ([16]; 0.2500 kg/ha): 8.0

COC(=O)C(C)Oc1ccc(C)cc1-c1nsc2ccc(-n3c(=O)cc(C(F)(F)F)n(C)c3=O)cc12 (centres unmarked) [Compound 3]
herbicidal effect rating ([1]; 0.1250 kg/ha): 0.0
herbicidal effect rating ([1]; 0.2500 kg/ha): 0.0
herbicidal effect rating ([1]; 0.5000 kg/ha): 0.0
herbicidal effect rating ([2]; 0.1250 kg/ha): 3.0
herbicidal effect rating ([2]; 0.2500 kg/ha): 3.0
herbicidal effect rating ([2]; 0.5000 kg/ha): 3.0
herbicidal effect rating ([3]; 0.0313 kg/ha): 9.0
herbicidal effect rating ([3]; 0.0625 kg/ha): 9.0
herbicidal effect rating ([3]; 0.1250 kg/ha): 9.0
herbicidal effect rating ([3]; 0.2500 kg/ha): 9.0
herbicidal effect rating ([3]; 0.5000 kg/ha): 9.0
herbicidal effect rating ([4]; 0.0313 kg/ha): 0.0
herbicidal effect rating ([4]; 0.0625 kg/ha): 0.0
herbicidal effect rating ([4]; 0.1250 kg/ha): 0.0
herbicidal effect rating ([4]; 0.2500 kg/ha): 2.0
herbicidal effect rating ([4]; 0.5000 kg/ha): 4.0
herbicidal effect rating ([5]; 0.1250 kg/ha): 9.0
herbicidal effect rating ([5]; 0.2500 kg/ha): 9.0
herbicidal effect rating ([5]; 0.5000 kg/ha): 9.0
herbicide rating (0-9) [6]: 8.3
herbicide rating (0-9) [7]: 9.0
herbicide rating (0-9) ([8]; 0.0630 kg/ha): 9.0
herbicide rating (0-9) ([8]; 0.2500 kg/ha): 9.0
herbicide rating (0-9) ([9]; 0.0630 kg/ha): 8.3
herbicide rating (0-9) ([9]; 0.2500 kg/ha): 9.0
herbicide rating (0-9) [10]: 9.0
herbicidal effect rating ([11]; 0.0313 kg/ha): 9.0
herbicidal effect rating ([11]; 0.0625 kg/ha): 9.0
herbicidal effect rating ([11]; 0.1250 kg/ha): 9.0
herbicidal effect rating ([11]; 0.2500 kg/ha): 9.0
herbicidal effect rating ([11]; 0.5000 kg/ha): 9.0
herbicide rating (0-9) ([12]; 0.0630 kg/ha): 9.0
herbicide rating (0-9) ([12]; 0.2500 kg/ha): 9.0
herbicide rating (0-9) [13]: 7.3
herbicide rating (0-9) ([14]; 0.0630 kg/ha): 9.0
herbicide rating (0-9) ([14]; 0.2500 kg/ha): 9.0
herbicide rating (0-9) [15]: 9.0
herbicide rating (0-9) ([16]; 0.0630 kg/ha): 9.0
